Laboratory results published in US20260364184A1, “COMPOUND BASED ON OXOISOINDOLINYL-SUBSTITUTED TETRAHYDROPYRIMIDINE-DIONE AND USE THEREOF” (GLUETACS THERAPEUTICS (SHANGHAI) CO., LTD., priority 2023, published 2026).

How the values were obtained:
[1] = tested on: Human malignant melanoma cell line (A375); experiment: Inhibition of A375 cell proliferation (CellTiter luminescent viability); settings: A-375, Table III (II1), EZH2 inhibitor-based, 96 hours; for inhibition at 0.01 µM: A375, 10 nM, read-out: Inhibition Rate at 10 nM (%); for inhibition at 0.5 µM: A375, 500 nM, read-out: Inhibition Rate at 500 nM (%)
Description: The tumor cells used herein were cultured in a cell culture medium listed in table 3 at 37 °C in an incubator with 5% CO2. Prior to experimentation, all cell lines used were correctly identified by STR profiling, and tested negative for mycoplasma contamination using a mycoplasma detection kit through routine screenings.
The IC50 values of the compounds of the present disclosure (including the compounds in Table 1, Table 2, and Examples 1-468) were determined using the CellTiter-Meiluncell Luminescent Cell Viability Assay Kit from Dalian Meilun Biotech Co., Ltd. The detailed procedure is as follows: Tumor cells were seeded in 96-well cell culture plates at the densities specified in Table 4. On the following day, the test compounds of the present disclosure were subjected to serial dilution. The dilution can be performed according to one of the following two methods: • (1) The first dilution method: The test compounds of the present disclosure (including the compounds in Table 1, Table 2, and Examples 1-468) were subjected to 5-fold serial dilutions starting from a highest concentration of 2000 μM, resulting in a total of 9 concentrations from high to low (2000, 400, 80, 16, 3.2, 0.64, 0.128, 0.0256, 0.00512 μM). Subsequently, 0.5 μL of the test compound dilution was transferred into the 96-well plate containing the cells, with each well containing 100 μL of cell culture medium. […] Into the 96-well plate, the diluted test compounds and corresponding detection reagents were added, resulting in final test compound concentrations of 500 nM and 10 nM, respectively. The experimental procedure is described below using the diluted 2 μM test compound as an example.
0.5 μL of the aforementioned diluted compound of the present disclosure (including the compounds in Table 1, Table 2, and Examples 1-468) was added to the seeded cells in 100 μL of medium, yielding a final test compound concentration of 10 nM. After the cells were treated with the compounds of the present disclosure for a specified period, the cell viability assay reagent was added to the culture medium according to the kit's instructions to determine cell viability. […] All controls were treated using the same procedure as the compounds of the present disclosure. The growth inhibition curves for the compounds of the present disclosure were plotted using Prism GraphPad software, and the IC50 values were calculated therefrom.

[2] = tested on: Human large cell immunoblastic lymphoma cell line SR; experiment: Inhibition of SR cell proliferation (CellTiter luminescent viability); format: cell-based; settings: Table IB1, ALK inhibitor-based, 96 hours, read-out: Inhibitory activity (IC50, nM) on tumor cell proliferation, SR
How it was run: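 IC50 is fitted from luminescent viability (CellTiter-Meiluncell) curves. Nine-point, 5-fold dilution series (top stock 2000 μM) are added at 0.5 μL per 100 μL medium to cells plated the day before, with growth at 37 °C and 5% CO2.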

ALK = target: T1, ALK (Homo sapiens, UniProt Q9UM73); experiment: Western blot degradation of ALK; format: cell-based; settings: H2228 Cell; 24 hours
T1 construct: known EML4-ALK variant 3 fusion, ALK kinase part unmutated), Western blot
Description: Conventional Western blot assay was performed to evaluate the effects of the compounds of the present disclosure on the expression of target proteins in cells.
(1) Cell Seeding and Protein Harvesting: The selected cells were processed according to the cell seeding procedure and protein harvesting procedure in Table II-2.
(2) To the collected supernatant, 5×SDS sample loading buffer was added, followed by denaturation at 95 °C for 5 minutes. The denatured samples were then separated by SDS-PAGE electrophoresis on a polyacrylamide gel. Proteins were transferred to a nitrocellulose membrane (0.45 μm NC membrane), blocked with blocking buffer at room temperature for 1 hour, and subjected to antibody incubation and development procedures according to the antibody manufacturer's instructions (Cell Signaling Technology).
Half-Maximal Degradation Concentration value (the drug concentration required for degrading proteins by 50%, abbreviated as DC50) reads method: comparing the grayscale values of Western blot bands from drug-treated samples with those from blank DMSO-treated controls, and identifying the drug concentration range at which the grayscale value is half that of the DMSO-treated control bands.
DC50 values can be calculated using ImageJ software to measure grayscale values of Western blot bands from drug-treated samples. The concentration-response curve is fitted to estimate the drug concentration corresponding to half the grayscale value.
Target protein remaining (%) refers to the percentage of target protein remaining in cells after treatment with protein degrader compounds.
Calculation method for target protein remaining (%): Use ImageJ software to measure grayscale values of Western blot bands from drug (protein degrader)-treated samples. The grayscale value of drug-treated bands is divided by that of internal control protein bands, and the resulting quotient is normalized to obtain the relative percentage of remaining target protein after protein degrader treatment.
Target protein degradation rate (%)=1−target protein remaining (%).

T1 sequence (Q9UM73 19-1620): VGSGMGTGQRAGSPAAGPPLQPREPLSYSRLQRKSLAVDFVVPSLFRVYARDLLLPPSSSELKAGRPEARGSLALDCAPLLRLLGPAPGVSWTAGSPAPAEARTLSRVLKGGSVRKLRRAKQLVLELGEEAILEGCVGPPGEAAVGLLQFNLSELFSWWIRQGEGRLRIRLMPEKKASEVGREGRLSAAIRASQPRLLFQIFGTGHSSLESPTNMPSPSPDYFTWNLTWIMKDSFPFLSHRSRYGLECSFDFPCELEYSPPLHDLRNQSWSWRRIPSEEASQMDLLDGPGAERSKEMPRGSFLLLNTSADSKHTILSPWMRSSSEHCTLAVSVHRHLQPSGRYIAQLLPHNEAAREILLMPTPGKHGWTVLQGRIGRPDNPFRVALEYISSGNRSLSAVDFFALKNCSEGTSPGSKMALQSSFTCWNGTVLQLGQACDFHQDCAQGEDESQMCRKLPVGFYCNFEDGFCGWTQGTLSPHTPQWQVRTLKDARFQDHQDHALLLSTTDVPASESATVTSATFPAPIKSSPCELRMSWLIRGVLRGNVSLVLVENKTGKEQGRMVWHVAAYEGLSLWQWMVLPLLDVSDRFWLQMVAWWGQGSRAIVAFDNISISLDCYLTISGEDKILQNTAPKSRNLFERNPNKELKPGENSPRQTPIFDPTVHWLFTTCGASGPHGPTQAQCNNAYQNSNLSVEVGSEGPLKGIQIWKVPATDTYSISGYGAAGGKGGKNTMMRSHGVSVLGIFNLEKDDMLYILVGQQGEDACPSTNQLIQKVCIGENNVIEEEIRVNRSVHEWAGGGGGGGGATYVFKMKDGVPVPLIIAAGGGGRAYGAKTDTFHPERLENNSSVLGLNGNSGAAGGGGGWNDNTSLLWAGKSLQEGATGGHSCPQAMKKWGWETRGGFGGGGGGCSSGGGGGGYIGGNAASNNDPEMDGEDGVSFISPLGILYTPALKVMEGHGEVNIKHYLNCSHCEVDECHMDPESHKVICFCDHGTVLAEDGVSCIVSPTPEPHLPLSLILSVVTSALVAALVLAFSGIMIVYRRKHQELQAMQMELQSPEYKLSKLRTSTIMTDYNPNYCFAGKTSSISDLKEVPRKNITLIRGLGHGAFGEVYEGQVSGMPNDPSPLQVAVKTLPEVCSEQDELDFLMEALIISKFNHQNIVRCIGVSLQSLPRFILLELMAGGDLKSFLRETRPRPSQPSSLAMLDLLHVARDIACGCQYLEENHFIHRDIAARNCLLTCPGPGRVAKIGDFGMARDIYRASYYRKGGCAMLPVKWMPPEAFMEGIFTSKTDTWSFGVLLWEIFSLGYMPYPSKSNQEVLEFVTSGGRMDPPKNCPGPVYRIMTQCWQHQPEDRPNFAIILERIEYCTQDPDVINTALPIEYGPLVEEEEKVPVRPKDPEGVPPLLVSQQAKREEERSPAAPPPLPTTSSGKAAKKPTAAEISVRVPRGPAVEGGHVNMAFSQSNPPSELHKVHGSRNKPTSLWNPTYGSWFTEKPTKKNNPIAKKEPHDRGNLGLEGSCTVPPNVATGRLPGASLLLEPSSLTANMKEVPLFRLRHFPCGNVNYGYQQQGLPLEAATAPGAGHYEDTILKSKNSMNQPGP
T1 sequence (Q96SW2 whole entry partner, the tested form may be a part): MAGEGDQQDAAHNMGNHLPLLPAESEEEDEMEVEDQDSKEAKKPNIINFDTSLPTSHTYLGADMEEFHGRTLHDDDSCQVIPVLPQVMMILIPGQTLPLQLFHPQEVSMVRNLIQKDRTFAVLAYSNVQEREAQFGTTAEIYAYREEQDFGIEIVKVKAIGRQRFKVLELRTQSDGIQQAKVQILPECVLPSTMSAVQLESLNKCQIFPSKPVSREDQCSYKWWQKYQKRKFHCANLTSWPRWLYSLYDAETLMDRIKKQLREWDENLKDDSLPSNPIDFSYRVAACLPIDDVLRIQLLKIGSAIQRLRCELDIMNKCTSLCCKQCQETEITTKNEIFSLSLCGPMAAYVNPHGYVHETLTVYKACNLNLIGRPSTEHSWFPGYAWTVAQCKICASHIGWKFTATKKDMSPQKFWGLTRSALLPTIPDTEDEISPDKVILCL

Row | IC50 [2] [nM] | Degradation of substrate protein ALK (substrate protein remaining %) (ALK) | Compound | inhibition at 0.01 µM [1] [%] | inhibition at 0.5 µM [1] [%]
1 | – | – | CCCc1cc(C)[nH]c(=O)c1CNC(=O)c1cc(-c2ccc(N3CCN(CC4CCN(c5ccc6c(c5)C(=O)N(N5CCC(=O)NC5=O)C6=O)CC4)CC3)nc2)cc2c1cnn2C(C)C [GT-08516, 6-(6-(4-((1-(2-(2,4-dioxotetrahydropyrimidin-1(2H)-yl)-1,3-dioxoisoindolin-5-yl)piperidin-4-yl)methyl)piperazin-1-yl)pyridin-3-yl)-1-isopropyl-N-((6-methyl-2-oxo-4-propyl-1,2-dihydropyridin-3-yl)methyl)-1H-indazole-4-carboxamide] | 20 to 30 | 20 to 30
2 | 10 to 50 | A (0%≤substrate protein remaining %≤80%) | CCc1cc2c(cc1N1CCC(N3CCN(Cc4ccc5c(c4)CN(N4CCC(=O)NC4=O)C5=O)CC3)CC1)C(C)(C)c1[nH]c3cc(C#N)ccc3c1C2=O [GT-06822, 8-(4-(4-((2-(2,4-dioxotetrahydropyrimidin-1(2H)-yl)-1-oxoisoindolin-5-yl)methyl)piperazin-1-yl)piperidin-1-yl)-9-ethyl-6,6-dimethyl-11-oxo-6,11-dihydro-5H-benzo[b]carbazole-3-carbonitrile] | – | –
3 | 100 to 300 | A (0%≤substrate protein remaining %≤80%) | COc1cc(N2CCN(Cc3ccc4c(c3)C(=O)N(N3CCC(=O)NC3=O)C4=O)CC2)ccc1Nc1ncc(Cl)c(Nc2ccccc2P(C)(C)=O)n1 [GT-07342, 5-((4-(4-((5-chloro-4-((2-(dimethylphosphoryl)phenyl)amino)pyrimidin-2-yl)amino)-3-methoxyphenyl)piperazin-1-yl)methyl)-2-(2,4-dioxotetrahydropyrimidin-1(2H)-yl)isoindoline-1,3-dione] | – | –
4 | 100 to 300 | A (0%≤substrate protein remaining %≤80%) | Cc1cc(Nc2ncc(Cl)c(Nc3ccccc3S(=O)(=O)C(C)C)n2)c(OC(C)C)cc1C1CCN(Cc2ccc3c(c2)C(=O)N(N2CCC(=O)NC2=O)C3=O)CC1 [GT-07363, 5-((4-(4-((5-chloro-4-((2-(isopropylsulfonyl)phenyl)amino)pyrimidin-2-yl)amino)-5-isopropoxy-2-methylphenyl)piperidin-1-yl)methyl)-2-(2,4-dioxotetrahydropyrimidin-1(2H)-yl)isoindoline-1,3-dione] | – | –
5 | 10 to 50 | A (0%≤substrate protein remaining %≤80%) | COc1cc(N2CCN(Cc3ccc4c(c3)CN(N3CCC(=O)NC3=O)C4=O)CC2)ccc1Nc1ncc(Cl)c(Nc2ccccc2P(C)(C)=O)n1 [GT-07341, 1-(5-((4-(4-((5-chloro-4-((2-(dimethylphosphoryl)phenyl)amino)pyrimidin-2-yl)amino)-3-methoxyphenyl)piperazin-1-yl)methyl)-1-oxoisoindolin-2-yl)dihydropyrimidine-2,4 (1H,3H)-dione] | – | –
6 | – | – | CCN(c1cc(-c2ccc(CN3CCN(CC4CCN(c5ccc6c(c5)C(=O)N(N5CCC(=O)NC5=O)C6=O)CC4)CC3)cc2)cc(C(=O)NCc2c(C)cc(C)[nH]c2=O)c1C)C1CCOCC1 [GT-08518, N-((4,6-dimethyl-2-oxo-1,2-dihydropyridin-3-yl)methyl)-4′-((4-((1-(2-(2,4-dioxotetrahydropyrimidin-1(2H)-yl)-1,3-dioxoisoindolin-5-yl)piperidin-4-yl)methyl)piperazin-1-yl)methyl)-5-(ethyl(tetrahydro-2H-pyran-4-yl)amino)-4-methyl-[1,1′-biphenyl]-3-carboxamide] | 20 to 30 | 20 to 30
7 | 50 to 100 | A (0%≤substrate protein remaining %≤80%) | COc1cc(N2CCN(CC3CCN(c4cccc5c4C(=O)N(N4CCC(=O)NC4=O)C5=O)CC3)CC2)ccc1Nc1ncc(Cl)c(Nc2ccccc2P(C)(C)=O)n1 [GT-07344, 4-(4-((4-(4-((5-chloro-4-((2-(dimethylphosphoryl)phenyl)amino)pyrimidin-2-yl)amino)-3-methoxyphenyl)piperazin-1-yl)methyl)piperidin-1-yl)-2-(2,4-dioxotetrahydropyrimidin-1(2H)-yl)isoindoline-1,3-dione] | – | –
8 | 10 to 50 | A (0%≤substrate protein remaining %≤80%) | Cc1cc(Nc2ncc(Cl)c(Nc3ccccc3S(=O)(=O)C(C)C)n2)c(OC(C)C)cc1C1CCN(Cc2ccc3c(c2)CN(N2CCC(=O)NC2=O)C3=O)CC1 [GT-07362, 1-(5-((4-(4-((5-chloro-4-((2-(isopropylsulfonyl)phenyl)amino)pyrimidin-2-yl)amino)-5-isopropoxy-2-methylphenyl)piperidin-1-yl)methyl)-1-oxoisoindolin-2-yl)dihydropyrimidine-2,4 (1H,3H)-dione] | – | –
9 | 100 to 300 | A (0%≤substrate protein remaining %≤80%) | CCc1cc2c(cc1N1CCN(Cc3ccc4c(c3)C(=O)N(N3CCC(=O)NC3=O)C4=O)CC1)C(C)(C)c1[nH]c3cc(C#N)ccc3c1C2=O [GT-07320, 8-(4-((2-(2,4-dioxotetrahydropyrimidin-1(2H)-yl)-1,3-dioxoisoindolin-5-yl)methyl)piperazin-1-yl)-9-ethyl-6,6-dimethyl-11-oxo-6,11-dihydro-5H-benzo[b]carbazole-3-carbonitrile] | – | –
10 | 10 to 50 | A (0%≤substrate protein remaining %≤80%) | CCc1cc2c(cc1N1CCC(N3CCN(CC4CCN(c5cccc6c5C(=O)N(N5CCC(=O)NC5=O)C6=O)CC4)CC3)CC1)C(C)(C)c1[nH]c3cc(C#N)ccc3c1C2=O [GT-07298, 8-(4-(4-((1-(2-(2,4-dioxotetrahydropyrimidin-1(2H)-yl)-1,3-dioxoisoindolin-4-yl)piperidin-4-yl)methyl)piperazin-1-yl)piperidin-1-yl)-9-ethyl-6,6-dimethyl-11-oxo-6,11-dihydro-5H-benzo[b]carbazole-3-carbonitrile] | – | –
11 | 10 to 50 | A (0%≤substrate protein remaining %≤80%) | CCc1cc2c(cc1N1CCC(N3CCN(CC4CCN(c5ccc6c(c5)C(=O)N(N5CCC(=O)NC5=O)C6=O)CC4)CC3)CC1)C(C)(C)c1[nH]c3cc(C#N)ccc3c1C2=O [GT-06823, 8-(4-(4-((1-(2-(2,4-dioxotetrahydropyrimidin-1(2H)-yl)-1,3-dioxoisoindolin-5-yl)piperidin-4-yl)methyl)piperazin-1-yl)piperidin-1-yl)-9-ethyl-6,6-dimethyl-11-oxo-6,11-dihydro-5H-benzo[b]carbazole-3-carbonitrile] | – | –
12 | 10 to 50 | A (0%≤substrate protein remaining %≤80%) | CCc1cc2c(cc1N1CCN(CC3CCN(c4cccc5c4C(=O)N(N4CCC(=O)NC4=O)C5=O)CC3)CC1)C(C)(C)c1[nH]c3cc(C#N)ccc3c1C2=O [GT-07322, 8-(4-((1-(2-(2,4-dioxotetrahydropyrimidin-1(2H)-yl)-1,3-dioxoisoindolin-4-yl)piperidin-4-yl)methyl)piperazin-1-yl)-9-ethyl-6,6-dimethyl-11-oxo-6,11-dihydro-5H-benzo[b]carbazole-3-carbonitrile] | – | –
